Assay results as given in US12678438B2, “Treatment of cancer with CDK inhibitors” (THE TRUSTEES OF THE UNIVERSITY OF PENNSYLVANIA, priority 2019, dated 2026).
Blank lines part the entries; values can stand above or below the molecule they belong to.

Tests used:
Type in all cases: cell-based, human
p-MED1 (p-T1457 MED1) = assay: Immunoblot of p-MED1 in AR-positive PCa cell lines (VCaP, LNCaP, 22RV1); settings: LNCaP
Method: Cell lysates were prepared with RIPA buffer (Boston Bioproducts, BP-115DG)-10 mM Tris-HCl pH 7.5, 1 mM EDTA, 400 mM NaCl, 0.5% NP-40 and 1 mM DTT, supplemented with protease inhibitor cocktail (Pierce, A32965) and phosphatase inhibitor (Thermo, 1861280). For immunoblotting 200 μg total protein extract was boiled in sample buffer and 15-25 μg aliquots were separated by SDS-PAGE and transferred onto Polyvinylidene Difluoride membrane (GE Healthcare, IPVH00010). The membrane was incubated for one hour in blocking buffer [Tris-buffered saline, 0.1% Tween (TBS-T), 5% nonfat dry milk followed by overnight incubation on a rocker at 4° C. with the primary antibody. Following a wash with TBS-T, the blot was incubated with horseradish peroxidase-conjugated secondary antibody for 2 hrs on a rocker at room temperature. The blots were washed again and signals were visualized using enhanced chemiluminescence system as per manufacturer's protocol (GE Healthcare) or Kwik Quant Imager (Kindle Biosciences). Primary antibodies used in the immunoblotting (IB), immunoprecipitation (IP), and Chromatin Immunoprecipitation sequencing (ChIP-seq) assays are as follows: AR_IP, IB, ChIP-Seq (Millipore, 06-680); pS81-AR_IB (Millipore, 07-1375-EMD); RNA Pol II_IP, IB (Abcam, ab5408); ERG_IB (Abcam, a92513); PSA_IB (Dako, A0562); H3-acetyl K27_IP, IB, ChIP Seq (Abcam, ab32104) cPARP_IB (Cell Signaling Technology, 9541s); Cleaved caspase-3_IB (Cell Signaling Technology, 9664t); CDK7_IP, IB (Cell Signaling Technology, 2916s); CDK9_IP, IB (Cell Signaling Technology, 2316s); CDK12_IB (Cell Signaling Technology, 11973S); CDK13_IB (Sigma Cat. #ABE1860); Cyclin H_IB (Cell Signaling Technology, 2927T); HA_IP, IB (Cell Signaling Technology, 2367s); ERK1/2_IP, IB (Cell Signaling Technology, 9107s); phospho-ERK1/2_IB (Cell Signaling Technology, 9101s); phospho-Threonine_IB (Cell Signaling Technology, 9381s); PP2A alpha_IB (Abcam, ab32104); phospho-MED1_IB (Abcam, ab60950); Anti-GST_IB (Cell Signaling Technology, 2624); Anti-AKT_IB (Cell Signaling Technology, 9272); Anti-phosphoAKT_IB(Cell Signaling Technology, 4060); Anti-phospho-AR (Ser-515) _IB (Abeam, ab128250); Anti-RNA Pol 'LIB (Abeam, ab5408); Anti-phospho-pol II (Ser-5)_IB (Abeam, ab ab5095); Anti-phospho-CDK7 (Tlu-170) _IB (Millipore, ABS567); MED1_IP, IB, ChIP Seq (Bethyl, abA300-793A), Ki67_IHC (Cell Signaling Technology, 9661), and GAPDH (14C10), IB (Cell Signaling Technology, 3683s) for loading control.

[1] = system: chromatin-bound p-MED1/MED1; assay: Chromatin-bound protein extraction and immunoblot; settings: DHT-stimulated LNCaP, 6 h; THZ1 100 nM, enzalutamide 5 μM
Method: Chromatin bound protein extraction was performed following the protocol described in Pawar et al. Briefly, 10 million cells were collected and washed with DPBS, and were resuspended in 250 μl Buffer A (10 mM HEPES pH 7.9, 10 mM KCl, 1.5 mM MgCl2, 0.34 M sucrose, 10% glycerol, 1 mM DTT) supplemented with 0.1% TritonX-100 and incubated on ice for 10 min. The nuclei pellet was collected by centrifugation at 1300×g for 5 min at 4° C., washed in Buffer A and centrifuged again with the same settings. The nuclear pellet was then resuspended in Buffer B (3 mM EDTA, 0.2 mM EGTA, 1 mM DTT) and incubated on ice for 30 min. The chromatin pellet was collected by centrifugation at 1700×g for 5 min at 4° C., washed in Buffer B and centrifuged again with the same settings. The proteins were incubated on ice in Buffer B with 150 mM NaCl for 20 min and centrifuged at 1700×g for 5 min to remove proteins soluble in 150 mM salt concentrations. The pellet was then incubated in Buffer B with 300 mM NaCl on ice for 20 min and centrifuged again at 1700×g to obtain the final chromatin pellet. The chromatin pellet was dissolved in sample buffer, sonicated for 15 seconds, and boiled at 95° C. for 10 min. Samples were analyzed using Immunoblot analysis as described previously. All buffers were supplemented with Pierce protease inhibitor and Halt protease & phosphatase inhibitors.

[2] = system: MED1 and AR recruitment to the chromatin; assay: ChIP-seq of genome-wide MED1 and AR binding; settings: VCaP, 10 nM DHT plus 5 μM enzalutamide, 12 h
Method: ChIP was performed using iDeal ChIP-seq Kit for Transcription Factors (Diagenode, C01010170) according to manufacturer's protocol. In brief, the cells were crosslinked with 1% formaldehyde in culture medium for 10 min at room temperature. Cross-linking was terminated by the addition of 1/10 volume 1.25 M glycine for 5 min at room temperature followed by cell lysis and sonication (Bioruptor, Diagenode), resulting in an average chromatin fragment size of 200 bp. Chromatin equivalent to 5×10^6 cells was isolated and incubated with 10 μg antibody overnight at 4° C. (MED1, H3-acetyl K27, AR, and IgG (Diagenode). ChIP-seq libraries were prepared from the ChIP-enriched DNA samples using the TruSeq ChIP Library Preparation Kit (Illumina, IP-202-1012, IP-202-1024) and protocol. In brief, ChIP-enriched DNA (1-10 ng) was converted to blunt-ended fragments. A single A-base was added to fragment ends followed by ligation of Illumina adaptors. The adaptor-modified DNA fragments were enriched by PCR using the Illumina Barcode primers and Phusion DNA polymerase. PCR products were size selected using 3% NuSieve agarose gels (Lonza) followed by gel extraction using QIAEX II reagents (QIAGEN). Libraries were quantified with the Bioanalyzer 2100 (Agilent) and sequenced on the Illumina NextSeq 500 Sequencer (75 nucleotide read length).
Sequencing reads were quality checked with FASTQC (www.bioinformatics.babraham.ac.uk/projects/fastqc) and aligned to the GRCh37 (release 27) genome using the STAR v2.5.1 aligner with default settings. PCR duplicate reads in the aligned bam files were removed using samtools, bam files were converted to CPM normalized bigwig tracks using deeptools, and viewed using the Integrated Genomics Viewer or the UCSC genome browser. Single end reads were extended up to the fragment length (200 bp) along the read direction.
The enrichment peaks for the various transcription factors and histone marks were computed using MACS2, with default settings. Regions found to ubiquitously enriched across a number of next-generation sequencing experiments, also known as the blacklisted peaks (sites.google.com/site/anshulkundaje/projects/blacklists), were excluded in all subsequent analysis.

AR target genes = assay: qRT-PCR of DHT-induced AR target gene expression; settings: LNCaP and VCaP, 10 μM enzalutamide
Method: For AR signaling stimulation experiments, cells were plated in complete media at required confluency. After 24 h cells were washed with DPBS and cultured in RPMI/DMEM without Phenol Red (Invitrogen, 11835030) and 10% charcoal-dextran stripped FBS (Gemini BioProducts, 100-119) for 72 h. Cells were then stimulated with 10 nM DHT for the specific time points.
Total RNA was isolated from cells using miRNeasy Mini Kit (Qiagen, 74106) and cDNA was synthesized from 1 μg total RNA using SuperScriptIV (Life Technologies, 18090200). qRT-PCR was performed using Fast SYBR Master Mix (Life Technologies, 4385617) or Taqman Fast Advance MMIX (Life Technologies, 4444964), and analyzed on QuantStudio3 (Applied Biosystems, USA). The target mRNA expression was quantified using ΔΔCt method, as normalized to GAPDH transcript levels. Primers were designed using Primer3 Input (version 0.4.0) (bioinfo.ut.ee/primer3-0.4.0/primer3) and synthesized by Integrated DNA Technologies.

Structure (SMILES): COc1ccccc1-c1cc(Nc2cccc(CS(N)(=O)=O)c2)ncn1 [LDC]
p-MED1 levels (p-MED1 (p-T1457 MED1); VCaP, 22RV1, standard culture conditions, 24 h (THZ1 and LDC also with DHT stimulation)): no such effect on p-MED1 levels

Structure (SMILES): CN(C)CCCC(=O)Nc1ccc(C(=O)Nc2cccc(Nc3ncc(Cl)c(-c4c[nH]c5ccccc45)n3)c2)cc1 [THZ1-R]
MED1 phosphorylation (p-MED1 (p-T1457 MED1); 100 nM, 12 h): does not affect MEDI phosphorylation

MED1 chromatin association (ChIP-seq) [2]: completely abolished
average ChIP-seq signal for AR [2]: significantly reversed
Structure (SMILES): CNC(=O)c1ccc(N2C(=S)N(c3ccc(C#N)c(C(F)(F)F)c3)C(=O)C2(C)C)cc1F [enzalutamide]
chromatin-bound levels of p-MED1/MED1 [1]: unable to completely dissociate p-MED1 from the chromatin
DHT-induced AR target gene expression (AR target genes): AR target reversal
